{"source": "patent US7695971B2", "about": "“Use of non-absorbable fat in determining dietary fat absorption” (Children's Hospital Medical Center, priority 2003, dated 2010)", "key": {"[1]": {"assay": "Fat absorption by sucrose behenate marker method, mice (Example 1)", "procedure": "(§1) These two diets further have the following composition by weight: about 16% fat, 45% non-fat dry milk, and 39% sucrose, providing 30:15:55 fat:protein:carbohydrate energy %. Non-fat dry milk comprised 60% carbohydrate and 40% protein by weight. The fat composition (% by weight) is given for each diet as listed below. […] Aliquots of approximately 10 microliters of each fat blend are set aside and later analyzed for fatty acid analysis. The fat blends are added to non-fat dry milk and sucrose and mixed with an electric mixer for 5 minutes. The prepared diets are placed in a capped glass bottle and stored at 4° C. until used.\n(§2) The feeding and fecal collection regimen for rodents includes two days of test diet and three days of fecal collection. Prior to the study, the animals eat commercial chow ad libitum. Test diets, also fed ad libitum, replace chow on days 0 and 1, and chow is returned to the animals on day 2. Fecal collections are made on days 1, 2, and 3. The feeding and feces collection regimen is illustrated in the following table A:\n(§3) In general sample sizes of 10-20 milligrams provide a 5 to 10-fold excess of behenate in terms of the sensitivity of the gas chromatograph. The weighed fecal sample is ground into small particles with a spatula and placed in a 20 mL vial for saponification, methylation, and extraction. The method for saponification and methylation of fatty acids for gas chromatographic analysis can be that reported by Mecalfe (Metcalfe, L D et al. (1966). Anal. Chem. 38: 514-515). Four mL of 0.5N methanolic sodium hydroxide are added to the vial, which is then heated in a water bath at ˜80° C. for 5 mins. After a brief cooling period, 3 mL of BF3 in methanol (14% borontrifluoride and 86% methanol) are added to methylate the sample. After another five minutes of heating in the waterbath, the sample vial is allowed to cool to allow handling. Two mL of a saturated solution of sodium chloride and 10 mL of hexane are added to the vial. The samples are then mixed with a vortex mixer for one minute. Centrifugation can be used (2500 rpm at 1 min) to expedite the process of separation into two layers. The hexane fraction is transferred by pipette into a 20 mL vial that contains ˜10 mg of sodium sulfate to dry the sample. The hexane solution is removed for gas chromatograph analysis. An injection volume of 1 μL of the 10 mL of hexane is analyzed.\nSamples are analyzed with a gas chromatograph (GC) such as a Shimadzu GC-17A equipped with autosampler and autoinjector. Analysis of fatty acid methyl esters is then based on areas calculated with Shimadzu Class VP 4.3 software. An example of an appropriate column is one that can be obtained from J&W Scientific, DB-23 (123-2332): 30 m (length), I.D. (mm) 0.32 widebore, film thickness of […], although any suitable column can be substituted. Fatty acid identification is made by the use of comparison of retention times with those of authenticated standards. The conditions for the GC analysis in the present example are: Column temperature ramping by holding at 120° C. for one minute followed by an increase of 5° C./min from 120-240° C. The temperature of the injector and flame ionization detector is 250° C. A split (8:1) injection mode is used. The carrier gas is helium with a column flow rate of 2.5 mL/min. Under these conditions, the retention time of methyl behenate is 18.7 min.\nThe absorption of fatty acids is calculated with formula II:\n[formula] • where Fd=sum of the masses of all dietary fatty acids (or that of an individual fatty acid) other than behenic acid, • Bd=mass of dietary behenic acid, • Ff=sum of the mass of all fecal fatty acids (or that of an individual fatty acid) other than behenic acid, and • Bf=mass of fecal behenic acid."}, "[2]": {"assay": "Fat absorption by sucrose behenate marker method, rats (Example 2)", "procedure": "as §1, §2, §3\nSamples are analyzed with a gas chromatograph (GC) such as a Shimadzu GC-17A equipped with autosampler and autoinjector. Analysis of fatty acid methyl esters is then based on areas calculated with Shimadzu Class VP 4.3 software. […]\nThe absorption of fatty acids is calculated with formula II: […]"}}, "data": [{"molecule": "CCCCCCCCCCCCCCCC(=O)O", "note": "[Palmitic acid]", "values": [{"measurement": "Percent in Feces (Mean ± SEM)", "setting": "[1]; male, C57B1/6, mouse, in vivo", "result": "18.3 ± 0.5", "unit": "%"}, {"measurement": "absorption of individual fatty acid from safflower oil", "setting": "[2]; rat, in vivo", "result": "90.1±0.3", "unit": "%"}]}, {"molecule": "CCCCCCCCCCCCCCCCCC(=O)O", "note": "[Stearic acid]", "values": [{"measurement": "Percent in Feces (Mean ± SEM)", "setting": "[1]; male, C57B1/6, mouse, in vivo", "result": "5.28 ± 0.3", "unit": "%"}, {"measurement": "absorption of individual fatty acid", "setting": "[1]; male, C57B1/6, mouse, in vivo", "result": "77.3±2.1", "unit": "%"}, {"measurement": "absorption of individual fatty acid from safflower oil", "setting": "[2]; rat, in vivo", "result": "75.9±0.3", "unit": "%"}]}, {"molecule": "CCCCCCCCCCCCCCCCCCCCCC(=O)O", "note": "[behenic acid, reference compound]", "values": [{"measurement": "behenic acid in feces, of the total fatty acids", "setting": "[1]; mice fed Safflower Oil Diet", "result": "33.5-66.4%"}, {"measurement": "behenic acid in feces, of the fatty acids", "setting": "[1]; mice fed Safflower Oil and Olestra Diet", "result": "12.5-19.3%"}]}, {"molecule": "CCCCC/C=C\\C/C=C\\CCCCCCCC(=O)O", "note": "[linoleic acid]", "values": [{"measurement": "Percent in Feces (Mean ± SEM)", "setting": "[1]; male, C57B1/6, mouse, in vivo", "result": "27.7 ± .6%"}, {"measurement": "absorption of individual fatty acid from safflower oil (in words)", "setting": "[1]; mouse, in vivo", "result": "nearly complete"}, {"measurement": "absorption of individual fatty acid from safflower oil (in words)", "setting": "[2]; rat, in vivo", "result": "essentially complete"}]}, {"molecule": "CCCCCCCC/C=C\\CCCCCCCC(=O)O", "note": "[oleic]", "values": [{"measurement": "Percent in Feces (Mean ± SEM)", "setting": "[1]; fecal samples from mice ingesting Safflower Oil and Olestra Diet", "result": "24.7 ± 01.0", "unit": "%"}, {"measurement": "absorption of individual fatty acid from safflower oil (in words)", "setting": "[1]; mice, Safflower Oil Diet", "result": "nearly complete"}, {"measurement": "absorption of individual fatty acid from safflower oil", "setting": "[2]; rats, fecal collections of days 2 and 3", "result": "90.9±0.5", "unit": "%"}]}]}
